Tests used:
[1] = system: TrxR1 purified from a day 14 culture of cell line B; assay: DTNB reductase activity of 2'5'-ADP column fractions from cell line B, TrxR1; format: biochemical, Chinese Hamster; settings: 0.5 μM ATG, fractions B1-C2, depending on the fraction
Experimental: Reductases were purified from cell samples to verify the specificity of reductase inhibitors. A day 14 culture of mAb B (IgG antibody produced by CHO cell line B CHO-K1SV) was pelleted by centrifugation, washed once with PBS and re-suspended in 50 mM tris buffer, pH 7.5. The solution was homogenized and filtered at 0.2 μm prior to loading onto a column of 2′5′-ADP Sepharose 4B resin. The reductases were eluted using a linearly increasing gradient of 0 to 0.3 mM NADP^+ in the same tris buffer (Yadav, et al., Parasitol. Int., 62:193-198, 2013). The reductase activity of the collected fractions was determined using the assay described in Example 3. Additionally, western blot analysis was used to detect TrxR1 and GR in the collected fractions.
The reductase-specific inhibitors were evaluated above using purified recombinant mammalian enzymes from rat and human. […] The added activity from the two systems was approximately equal to the total activity detected in the absence of an inhibitor for each fraction. […] That is, if the reductase inhibitors were non-specifically inhibiting both enzymatic systems, the added reductase activity would have been […] than the reductase activity detected without any added inhibitor. […] The fractions with reductase activity were pooled and further evaluated at the inhibitor concentrations assayed in the antibody reduction assay.

[2] = system: GR isolated from CHO cell culture; assay: mAb B reduction by pooled CHO fractions with NADPH and GSSG; format: biochemical, Chinese Hamster; settings: 3 μM Cu^2+ or 100 μM ATG, overnight room temperature
Experimental: (§1) Purified mAb B was spiked into several solutions containing different combinations of the pooled fractions (PF), recombinant Trx1, GSSG, NADPH, ATG, and Cu^2+. The solutions were incubated at room temperature overnight and the amount of intact antibody remaining was determined by capillary electrophoresis according to the protocol described above. In the first set of samples, purified mAb B was spiked into the pooled fractions with, and without, NADPH.
In the second set of samples, purified mAb B was spiked into solutions containing the pooled enzymes, NADPH, GSSG, and either no inhibitor, 3 μM Cu^2+, or 100 μM ATG. […] This solution contained GR, GSSG, and NADPH, which are needed for the glutathione system.

[3] = system: TrxR1 purified from CHO cell cultures; assay: mAb B reduction by pooled CHO fractions with NADPH and Trx1; format: biochemical, Chinese Hamster; settings: 3 μM Cu^2+ or 100 μM ATG, overnight room temperature
Experimental: as §1
The third set of solutions contained the pooled enzymes, NADPH, Trx1, and either no inhibitor, 3 μM Cu^2+, or 100 μM ATG. […] In the final sample as a control, mAb B was spiked into a solution containing NADPH, Trx1, and GSSG.

recombinant TrxR1/Trx1 = target: T1, recombinant TrxR1/Trx1 (Rattus norvegicus, UniProt O89049); assay: DTNB reductase activity assay, recombinant TrxR1/Trx1; settings: ATG concentrations higher than 0.1 μM
T1 sequence (O89049 1-499): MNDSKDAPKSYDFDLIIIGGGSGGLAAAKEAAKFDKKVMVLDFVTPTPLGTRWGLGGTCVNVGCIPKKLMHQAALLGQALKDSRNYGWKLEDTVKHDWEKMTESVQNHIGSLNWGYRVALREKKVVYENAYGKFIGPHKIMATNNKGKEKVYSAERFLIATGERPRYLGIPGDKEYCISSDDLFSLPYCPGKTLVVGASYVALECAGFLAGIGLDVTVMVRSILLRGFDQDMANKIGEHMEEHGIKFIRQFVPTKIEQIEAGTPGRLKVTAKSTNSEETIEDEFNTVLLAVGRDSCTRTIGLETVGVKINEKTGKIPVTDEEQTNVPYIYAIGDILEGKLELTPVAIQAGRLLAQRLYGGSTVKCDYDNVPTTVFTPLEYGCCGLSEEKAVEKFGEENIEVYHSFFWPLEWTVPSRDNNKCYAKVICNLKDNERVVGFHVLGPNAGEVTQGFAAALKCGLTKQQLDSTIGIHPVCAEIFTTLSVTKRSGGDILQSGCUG
Experimental: This assay allows determination of the total reductase activity in a culture sample, as well as determination of the individual contribution made by thioredoxin reductase and glutathione reductase to the total reductase activity of the sample. In this assay, culture samples (cells+media) from 3 L bioreactors were stored frozen until the end of the run, after which the samples were centrifuged to remove the cell pellet then the resulting supernatant was diluted 20-fold into 100 mM tris buffer, pH 7.4, containing 0.4 mM NADPH, 0.15 mM oxidized glutathione, and 3 mM DTNB with the indicated concentration of specific reductase inhibitor. Addition of the enzyme specific inhibitors to the samples allowed the total reductase activity to be determined as well as the individual activity from the thioredoxin and glutathione systems. Reductase activity was monitored by spectroscopic measurement of the increase in absorbance at a wavelength of 412 nm. […] The detected increase in absorbance at this wavelength is caused by the reduction of DTNB (Arnér, ESJ, Biochim. Biophys. Acta—Gen. Subj., 1790:495-526, 2009).
Briefly, culture samples were thawed on ice. […] The absorbance at a wavelength of 412 nm was determined every 30 seconds, for 20 minutes.
Activity of the reductases was calculated as follows. The change in absorbance per minute (Δ412) for each well was determined. […]

**Q.** Which results are given for `OC[C@H]1O[C@H]([S-])[C@H](O)[C@@H](O)[C@@H]1O.[Au+]` [ATG, aurothioglucose]?
**A.** share of reductase activity from TrxR1, determined with the inhibitor [1]: 60-75%; antibody reduction in pooled enzymes, NADPH, GSSG [2]: did not inhibit antibody reduction; antibody reduction in pooled enzymes, NADPH, Trx1 [3]: completely prevented reduction; TrxR1/Trx1 reductase activity (recombinant TrxR1/Trx1): negligible
